Assay results published in patent US6632981B1, “DNA sequences encoding polypeptides having beta-1,3-glucanase activity” (Novartis Finance Corporation, priority 1988, dated 2003).

Tests used:
[1] = system: chimeric PR-1a/GUS gene; experiment: Chemical induction of chimeric PR-1a/GUS gene in transgenic tobacco plants, β-glucuronidase assay of leaf extracts; assay type: in vivo, Nicotiana tabacum
Experimental: A. Gene expression is induced in plants obtained according to previously described procedures by applying a fine spray of a solution of 0.1 to 50 mM salicylic acid which has been adjusted to a pH between 6.0 and 8.0 with NaOH, to the leaves using a plant mister.
The plants are allowed to continue to grow for two days and are then harvested, frozen in liquid nitrogen and stored at −80° C. until they are assayed as described in Example 65 and/or Example 66.
B. Alternatively, the following solutions are used for induction:
(§1) (3) Methyl benzo-1,2,3-thiadiazole-7-carboxylate. The solution is made by resuspending a wettable powder containing the chemical in sterile water for several minutes at a concentration of 1 mg/ml. Insoluble solid is removed from the solution by filter sterilizing.
Frozen leaf tissue is ground in a mortar with a pestle in the presence of liquid nitrogen to produce a fine powder. Leaf extracts are prepared by mixing a given weight (g) with an equal volume (ml) of GUS extraction buffer (50 mM sodium phosphate buffer pH 7.0, 0.1% Triton-X 100, 0.1% sarkosyl, 10 mM β-mercaptoethanol) as described by Jefferson, R. A. et al., Proc. Natl. Acad. Sci. USA 83: 8447-8451 (1986).
(§2) The reactions are carried out in the wells of ELISA plates by mixing 5-25 l extract with 120-100 l GUS assay buffer (50 mM sodium phosphate buffer pH 7.0, 0.1% Triton X-100, 10 mM β-mercaptoethanol) containing 4-methyl umbelliferyl glucuronide (MU) at a final concentration of 2 mM in a total volume of 125 l. The plate is incubated at 37° C. for 1-5 hours and the reaction is stopped by the addition of 150 l 3 M Na2CO3. The concentration of fluorescent indicator released is determined by reading the plate on a Flow Labs Fluoroskan II ELISA plate reader.

[2] = system: chimeric PR-1a/GUS gene; experiment: GUS induction in transformed tobacco callus; assay type: cell-based, Nicotiana tabacum; settings: 250 g/l spray, 21 hours
Experimental: Agrobacterium strains containing the appropriate vectors are used to transform callus forming from the leaf disks (Example 112). Callus forming on kanamycin-containing MSBN selection medium is maintained on a callus growth medium comprised of MS major, minor salts and Fe-EDTA (Gibco #500-1117; 4.3 g/l), MS vitamins, 100 mg/l myo-inositol, 20 g/l sucrose, 2 mg/l naphthaleneacetic acid and 0.3 mg/l kinetin.
The callus can be used to regenerate transgenic plants by transferring callus pieces to MSBN medium and following methods described in Examples 111 and 112. The callus is also used to measure gene induction following application of inducing chemicals and to screen for gene inducing chemicals.
A. Callus obtained according to previously described procedures is assayed for chemical induction by applying with a sterile paint brush or a plant mister a filter sterilized solution of 0.1 to 50 mM salicylic acid which has been adjusted to a pH between 6.0 and 8.0 by the addition of NaOH. […]
as §1
Frozen leaf tissue is ground in a mortar with a pestle in the presence of liquid nitrogen to produce a fine powder. […]
as §2, with “The plate is incubated at 37° C. for 1-5 hours and the reaction is stopped by the addition of 150 l 3 M Na2CO3.” left out, “reader. […]” for “reader.”

[3] = system: endogenous PR-1a gene; experiment: Assay for chemical induction of the endogenous PR-1a gene (mRNA, primer extension); assay type: in vivo; settings: tobacco plant materials, control procedure
Experimental: 50 g of total RNA is lyophilized in a 500 l Eppendorf tube. The RNA is resuspended in 30 l of radiolabeled probe solution and heated to 70′ C. for 10 minutes. The tube is slowly cooled to 37° C. and allowed to incubate overnight. Without removing the tube from the 37° C. water bath, 2 l of 10×reverse-transcriptase buffer (500 mM Tris-HCl, pH 7.5, 400 mM KCl, 30 mM MgCl2), 1 l 5 mg/ml bovine serum albumin, 5 l 100 mM dithiothreitol, 5 l 10×dNTPs (10 mM of each dNTP in H2O), 3 l H 20, 2 l RNasin (80 units), and 2 l reverse transcriptase (400 units) are added and the reaction is incubated at 37° C. for 30 minutes. To stop the reaction, 5 l of 3 M sodium acetate, pH 5, and 150 l absolute ethanol are added. The tube is left at −20° C. for 30 minutes, the precipitate is collected by centrifugation, washed with 80% ethanol and allowed to air-dry. The precipitate is resuspended in 10-20 l of loading dye (90% formamide, 0.05% bromophenol blue, 0.05% xylene cyanol, 1 mM EDTA) and the extension products are separated on a 6% sequencing gel (Maniatis, T. et al., supra). Extension products are visualized by autoradiography.
As a control procedure, tobacco plant materials induced as described in Examples 139-141 by salicylic acid, methyl benzo-1,2,3-thiadiazole-7-carboxylate and TMV are assayed for transcription of mRNA from the endogenous PR-1a gene by the methods described in Example 6.

COC(=O)c1cccc2nnsc12 [Methyl benzo-1,2,3-thiadiazole-7-carboxylate]
Specific Activity nKat MU/mg protein ([1]; tobacco plant Alu 1 (CIB272), water 5.6, buffer 20.5): 206.9 nKat MU/mg protein | Specific Activity nKat MU/mg protein ([1]; tobacco plant Alu 2 (CIB272), water 2.0, buffer 8.9): 83.2 nKat MU/mg protein | Specific Activity nKat MU/mg protein ([1]; tobacco plant Alu 3 (CIB272), water 0.1, buffer 2.0): 2.0 ± .9 nKat MU/mg protein | Specific Activity nKat MU/mg protein ([1]; tobacco plant Alu 4 (CIB272), water 2.1, buffer 6.1): 7.1 ± 2.6 nKat MU/mg protein | Specific Activity nKat MU/mg protein ([1]; tobacco plant Alu 5 (CIB272), water 0.6, buffer 0.5): 1.2 ± .6 nKat MU/mg protein | Specific Activity nKat MU/mg protein ([1]; tobacco plant Alu 6 (CIB272), water 0.8, buffer 3.1): 67.0 nKat MU/mg protein | Specific Activity nKat MU/mg protein ([1]; tobacco plant Alu 7 (CIB272), water 1.7, buffer 21.7): 29.1 nKat MU/mg protein | Specific Activity nKat MU/mg protein ([1]; tobacco plant Alu 8 (CIB272), water 0.6, buffer 0.6): 0.4 nKat MU/mg protein | Specific Activity nKat MU/mg protein ([1]; tobacco plant Alu 9 (CIB272), water 0.9, buffer 0.3): 0.4 nKat MU/mg protein | Specific Activity nKat MU/mg protein ([1]; tobacco plant Alu 10 (CIB272), water 4.0, buffer 8.1): 52.0 nKat MU/mg protein | Specific Activity nKat MU/mg protein ([1]; tobacco plant Alu 11 (CIB272), water 1.6, buffer 2.2): 2.8 ± 1.3 nKat MU/mg protein | Specific Activity nKat MU/mg protein ([1]; tobacco plant Alu 12 (CIB272), water 0.7, buffer 2.3): 73.4 nKat MU/mg protein | Specific Activity nKat MU/mg protein ([1]; tobacco plant Alu 13 (CIB272), water 0.1, buffer 1.9): 13.2 nKat MU/mg protein | Specific Activity nKat MU/mg protein ([1]; tobacco plant H 1 (CIB271), water 5.39, buffer 20.1): 13.5 ± 0.8 nKat MU/mg protein | Specific Activity nKat MU/mg protein ([1]; tobacco plant H 3 (CIB271), water 0.21, buffer 1.66): 11.95 ± 0.85 nKat MU/mg protein | Specific Activity nKat MU/mg protein ([1]; tobacco plant H 4 (CIB271), water 8.39, buffer 2.28): 18.52 ± 1.07 nKat MU/mg protein | Specific Activity nKat MU/mg protein ([1]; tobacco plant H 6 (CIB271), water 0.10, buffer 0.09): 2.58 ± .01 nKat MU/mg protein | Specific Activity nKat MU/mg protein ([1]; tobacco plant H 9 (CIB271), water 0.23, buffer 0.5): 9.1 nKat MU/mg protein | Specific Activity nKat MU/mg protein ([1]; tobacco plant Hae 1 (CIB273), water 0.6, buffer 1.7): 2.6 nKat MU/mg protein | Specific Activity nKat MU/mg protein ([1]; tobacco plant Hae 2 (CIB273), water 2.3, buffer 0.4): 11.8 nKat MU/mg protein | Specific Activity nKat MU/mg protein ([1]; tobacco plant Hae 3 (CIB273), water 1.7, buffer 3.0): 11.2 nKat MU/mg protein | Specific Activity nKat MU/mg protein ([1]; tobacco plant Hae 4 (CIB273), water 2.0, buffer 1.7): 10.8 nKat MU/mg protein | Specific Activity nKat MU/mg protein ([1]; tobacco plant Hae 5 (CIB273), water 18.1, buffer 36.6): 132.5 nKat MU/mg protein | Specific Activity nKat MU/mg protein ([1]; tobacco plant Hae 8 (CIB273), water 0.4, buffer 0.6): 28.9 nKat MU/mg protein | Specific Activity nKat MU/mg protein ([1]; tobacco plant Hae 9 (CIB273), water 2.6, buffer 12.5): 129.7 nKat MU/mg protein | Specific Activity nKat MU/mg protein ([1]; tobacco plant Hae 10 (CIB273), water 1.6, buffer 13.5): 98.2 nKat MU/mg protein | Specific Activity nKat MU/mg protein ([1]; tobacco plant Hae 11 (CIB273), water 2.6, buffer 3.9): 58.5 nKat MU/mg protein | Specific Activity nKat MU/mg protein ([1]; tobacco plant Hae 12 (CIB273), water 0.2, buffer 0.6): 5.8 nKat MU/mg protein | Specific Activity nKat MU/mg protein ([1]; tobacco plant Hae 13 (CIB273), water 0.01, buffer nd): 0.1 nKat MU/mg protein | Specific Activity nKat MU/mg protein ([1]; tobacco plant Hae 14 (CIB273), water 0.1, buffer 0.1): 8.6 nKat MU/mg protein | Specific Activity nKat MU/mg protein ([1]; tobacco plant Hae 15 (CIB273), water 0.1, buffer 3.4): 7.2 nKat MU/mg protein | Specific Activity nKat MU/mg protein ([1]; tobacco plant Hae 16 (CIB273), water 0.1, buffer 0.8): 4.3 nKat MU/mg protein | GUS activities ([2]; tobacco callus transformed with CIB271 (different experiment), H2O spray 2.8): 13.7 nKat MU/mg protein | GUS activities ([2]; tobacco callus transformed with CIB273, H2O spray 0.46): 31.2 nKat MU/mg protein | transcription of mRNA from the endogenous PR-1a gene [3]: Elevated levels of mRNA
